Experimental data as given in US12629355B2, “Drug inhibitor against migration and invasion of cancer cells and methods of treating against metastasis of cancer cells” (HOWARD UNIVERSITY, priority 2019, dated 2026).

Columns and labels:
Assay type in all cases: cell-based
U251 cells = assay: Wound migration assay (FIG. 9); conditions: TGF, 0 h and 14 h after wounding
Text: During tumorigenesis, the epithelial-mesenchymal transition (EMT) plays a crucial role in migration and invasion of various cancers. EMT plays an essential role in tumor invasiveness and metastasis in cancer progression. Invasiveness (metastasis) of cancers is associated with a critical physiological process in which epithelial cells transition to mesenchymal transition or differentiation (EMT). Epithelial cells are not regarded as motile. However, in EMT, epithelial cells lose their epithelial characteristics, including their polarity (apical-basal polarity) and specialized cell-cell junctions, to acquire motility (migratory ability) behavior to become invasive mesenchymal cells, (e.g., Qu et al., Int. J. Clin. Exp. Med., 10 (6): 9019-9028 (2017); Xu et al., Cell Res. 19:156-172 (2009)). The motile mesenchymal cells can move (migrate) into surrounding tissue, even remote tissue. […] A wound was created by sliding a tip of a plastic pipette on the surface of almost 100 percent confluent cells and the size of the wound was measured at 0 h and after 14 h of wound creation. […]
In FIG. 10 and FIG. 11, U251 cells were plated in six-well plates and were allowed to reach about 90%-100% density. […] The size of wound was measured under a microscope at 0 and 14 h after wounding.

[1] = test system: RACK1 / LamB1 co-localization; assay: Co-localization of RACK1 with ECM protein LamB1, immunofluorescence (FIG. 11); conditions: U251 cells, TGFbeta1, 72 h
Text: For effective migration, cell adhesion to the ECM is necessary and cell surface localized integrin molecules (alpha and beta) act as a link between the ECM and cell interior by acting as a receptor of the ECM proteins and linking ECM to the intracellular cytoskeleton complex. It is known that RACK1 acts as an integrin binding protein (Hermanto et al., 2002) and interaction between RACK1 and β1 integrin has been reported to mediate cancer cell invasion as reported in prostate cancer invasion and metastasis (Trerotola et al., 2012). RACK1 can promote tumor cell migration by using its scaffolding ability to bridge together different signaling proteins that integrate signaling from receptors cytoskeleton reorganization pathways. Laminin being a major ECM protein can therefor interact with integrins for cell adhesion and in this regard is expected to modulate by the RACK1 proteins scaffolding ability as discussed above. […] Lack of colocalization indicate that the link between the ECM proteins and intracellular cytoskeleton complex are interrupted and as such inhibiting this complex mediated migration signaling pathways.
As to FIG. 11, and methods of Immunofluorescence and confocal microscopy, U251 cells were grown to about 80% confluency in 12 well plate on glass cover slips and the cells were co-treated with the TGFb and indicated compounds for 72 h. […]

pY397-FAK = pY397-FAK expression, immunofluorescence (FIG. 15); conditions: U251 cells, 96 h, 5 ng/ml TGF-beta
Text: As to FIGS. 14 and 15, in order to evaluate the effect of a representative compound (SD 29-14) as a drug for inducing functional inactivation of RACK1 on the FAK phosphorylation, the drug was used in testing with breast cancer cells (MCF7, FIG. 14) and with glioblastoma cancer cells (U251, FIG. 15). In this immunofluorescence experiment, the pY397-FAK expressing cells were stained with FITC tagged secondary antibody (green) and RACK1 was stained with TRITC tagged secondary antibody (red). Here 5 ng/ml TGFbeta was used to induce cell migration. […] As discussed above, without the pY397-FAK present, the connection between the ECM and cell interiors will be disrupted which will inhibit the cell's potential to migrate by initiating the cell's adhesion to the ECM.
As to FIGS. 14 and 15, and the methods, the immunofluorescence experiments are essentially same as described with reference to FIG. 9 with a slight modification in the duration of the drug treatment. The cancer cells (MCF7 or U251) were incubated with a drug (SD 29-14) or with DMSO (left panel) for 96 h in the presence of 5 ng/ml TGF-beta. After indicated incubation period, the cells were fixed and stained with antibody as described for FIG. 9 methods.

[2] = Toxicity judged from DAPI treated cell nucleus in immunofluorescence experiments; conditions: 100 μM
Experimental: However, 100 μM might be a high concentration or dosing and may be higher than physiologically potent concentration.

Nn1c(S)nnc1-c1cc(Cl)cc(Cl)c1 [SD 29-14]
cell migration into wound (U251 cells): the cells failed to migrate to cover the clear area | co-localization of RACK1 and Lamb1 at the cell surface [1]: this interaction was absent | expression of pY397-FAK at the cell protrusions (pY397-FAK): almost completely inhibited | toxicity to cells (uniform DAPI treated cell nucleus, drug treated vs non-treated) [2]: not exposed to a toxic amount
